Values joined by “and” are separate entries in the source; they are usually repeats but may differ in a detail not shown here. Identical values can stand only once. Inconclusive results and toxic doses are left out.
System: BDF1 mice, B16 melanoma ip, median survival T/C
Assay: NCI In Vivo Anticancer Drug Screen. Data for tumor model B16 Melanoma (intraperitoneal) in B6D2F1 (BDF1) mice
Settings: endpoint: median survival time, higher = longer survival
Summary of the method: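 Antitumor activity is assessed in mice bearing a transplanted tumor, with survival or tumor size compared against vehicle-dosed controls and expressed as T/C.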

[1] = dose: 50.0 mg/kg/injection, schedule: Q01DX009 (ip), vehicle: saline
[2] = dose: 100.0 mg/kg/injection, schedule: Q01DX009 (ip), vehicle: saline
[3] = dose: 200.0 mg/kg/injection, schedule: Q01DX009 (ip), vehicle: saline
[4] = dose: 6.25 mg/kg/injection, schedule: Q01DX009 (ip), vehicle: saline with Tween-80
[5] = dose: 12.5 mg/kg/injection, schedule: Q01DX009 (ip), vehicle: saline with Tween-80
[6] = dose: 25.0 mg/kg/injection, schedule: Q01DX009 (ip), vehicle: saline with Tween-80
[7] = dose: 50.0 mg/kg/injection, schedule: Q01DX009 (ip), vehicle: saline with Tween-80
[8] = dose: 50.0 mg/kg/injection, schedule: Q01DX009 (ip), vehicle: Klucel (hydroxypropylcellulose) (HPC)
[9] = dose: 100.0 mg/kg/injection, schedule: Q01DX009 (ip), vehicle: Klucel (hydroxypropylcellulose) (HPC)
[10] = dose: 12.5 mg/kg/injection, schedule: Q01DX009 (ip), vehicle: saline
[11] = dose: 200.0 mg/kg/injection, schedule: Q01DX009 (ip), vehicle: Klucel (hydroxypropylcellulose) (HPC)
[12] = dose: 100.0 mg/kg/injection, schedule: Q01DX009 (ip), vehicle: saline with Tween-80
[13] = dose: 200.0 mg/kg/injection, schedule: Q01DX009 (ip), vehicle: saline with Tween-80
[14] = dose: 400.0 mg/kg/injection, schedule: Q01DX009 (ip), vehicle: saline with Tween-80

Compound: CCC1=C[C@H]2CN(CCc3c([nH]c4ccccc34)[C@@](C(=O)OC)(c3cc4c(cc3OC)N(C)[C@H]3[C@@](O)(C(=O)OC)[C@H](OC(C)=O)[C@]5(CC)C=CCN6CC[C@]43[C@@H]65)C2)C1
- T/C (dose: 0.05 mg/kg/injection, schedule: Q01DX009 (ip), vehicle: saline): 116 % of control
- T/C (dose: 0.06 mg/kg/injection, schedule: Q01DX009 (ip), vehicle: water): 100 % of control and 107 % of control
- T/C (dose: 0.1 mg/kg/injection, schedule: Q01DX009 (ip), vehicle: saline): 116 % of control
- T/C (dose: 0.13 mg/kg/injection, schedule: Q01DX009 (ip), vehicle: water): 103 % of control and 120 % of control
- T/C (dose: 0.25 mg/kg/injection, schedule: Q01DX009 (ip), vehicle: water): 108 % of control
- T/C (dose: 0.8 mg/kg/injection, schedule: Q01DX009 (ip), vehicle: saline): 181 % of control
- T/C (dose: 1.6 mg/kg/injection, schedule: Q01DX009 (ip), vehicle: saline): 208 % of control
- T/C (dose: 4.0 mg/kg/injection, schedule: Q04DX003 (ip), vehicle: water): 175 % of control

Compound: O=[N+]([O-])c1cccc2c(S(=O)(=O)O)cccc12
- T/C [1]: 113 % of control
- T/C [2]: 110 % of control
- T/C [3]: 91 % of control

Compound: OC1CCCC2CCCNC12 (centres undefined)
- T/C (dose: 3.12 mg/kg/injection, schedule: Q01DX009 (ip), vehicle: saline with Tween-80): 100 % of control
- T/C [4]: 108 % of control
- T/C [5]: 99 % of control
- T/C [6]: 96 % of control
- T/C [7]: 96 % of control

Compound: CC1=CCC(C(C)(C)c2ccc(O)cc2)CC1 (centres undefined)
- T/C [4]: 96 % of control
- T/C [5]: 105 % of control
- T/C [6]: 102 % of control and 106 % of control

Compound: O=C(NC(Cc1ccccc1)C(=O)O)OCC1c2ccccc2-c2ccccc21 (centres undefined)
- T/C [8]: 106 % of control
- T/C [9]: 114 % of control

Compound: CCCCCCCCCCCCCCCCc1ccc(CCCC(=O)O)cc1
- T/C (dose: 25.0 mg/kg/injection, schedule: Q01DX009 (ip), vehicle: carboxymethylcellulose (CMC)): 101 % of control
- T/C (dose: 50.0 mg/kg/injection, schedule: Q01DX009 (ip), vehicle: carboxymethylcellulose (CMC)): 103 % of control
- T/C (dose: 100.0 mg/kg/injection, schedule: Q01DX009 (ip), vehicle: carboxymethylcellulose (CMC)): 95 % of control

Compound: Nc1cc(NC(=O)c2ccc(Cl)cc2)ccc1S(=O)(=O)O
- T/C (dose: 3.12 mg/kg/injection, schedule: Q01DX009 (ip), vehicle: Klucel (hydroxypropylcellulose) (HPC)): 94 % of control
- T/C (dose: 6.25 mg/kg/injection, schedule: Q01DX009 (ip), vehicle: Klucel (hydroxypropylcellulose) (HPC)): 99 % of control
- T/C (dose: 12.5 mg/kg/injection, schedule: Q01DX009 (ip), vehicle: Klucel (hydroxypropylcellulose) (HPC)): 96 % of control
- T/C (dose: 25.0 mg/kg/injection, schedule: Q01DX009 (ip), vehicle: Klucel (hydroxypropylcellulose) (HPC)): 98 % of control
- T/C [8]: 98 % of control

Compound: CCOC1=C(N2CC2)C(=O)C(OCC)=C(N2CC2)C1=O
- T/C (dose: 0.5 mg/kg/injection, schedule: Q01DX009 (ip), vehicle: saline): 105 % of control
- T/C (dose: 2.0 mg/kg/injection, schedule: Q01DX009 (ip), vehicle: saline): 121 % of control

Compound: CCN(C(=O)Nc1ccccc1Cl)c1ccccc1
- T/C (dose: 100.0 mg/kg/injection, schedule: Q04DX003 (ip), vehicle: saline with Tween-80): 94 % of control
- T/C (dose: 200.0 mg/kg/injection, schedule: Q04DX003 (ip), vehicle: saline with Tween-80): 100 % of control
- T/C (dose: 400.0 mg/kg/injection, schedule: Q04DX003 (ip), vehicle: saline with Tween-80): 91 % of control

Compound: CC(=O)OC(CC(=O)CC(O)(C(F)(F)F)C(F)(F)F)(C(F)(F)F)C(F)(F)F
- T/C (dose: 3.13 mg/kg/injection, schedule: Q01DX009 (ip), vehicle: saline): 102 % of control
- T/C (dose: 3.13 mg/kg/injection, schedule: Q04DX003 (ip), vehicle: saline): 97 % of control
- T/C (dose: 6.25 mg/kg/injection, schedule: Q01DX009 (ip), vehicle: saline): 107 % of control
- T/C (dose: 6.25 mg/kg/injection, schedule: Q04DX003 (ip), vehicle: saline): 100 % of control
- T/C [10]: 92 % of control
- T/C (dose: 12.5 mg/kg/injection, schedule: Q04DX003 (ip), vehicle: saline): 100 % of control

Compound: CC[C@@H](O)C[C@H]1CCC[C@@]2(C[C@@H]3OC(=O)/C=C/[C@@](C)(O)[C@@H](O)[C@H](C)[C@@H](O)[C@H](OC4CCC(N(C)C)C(C)O4)[C@@H](O)[C@](C)(O)CCCCC/C=C/[C@@H]4CC(C)(C)O[C@@]4(O)C[C@H](O2)[C@H]3C)O1 (some centres undefined)
- T/C (dose: 4.0 micrograms/kg/injection, schedule: Q01DX009 (ip), vehicle: saline): 101 % of control
- T/C (dose: 8.0 micrograms/kg/injection, schedule: Q01DX009 (ip), vehicle: saline): 97 % of control
- T/C (dose: 16.0 micrograms/kg/injection, schedule: Q01DX009 (ip), vehicle: saline): 109 % of control
- T/C (dose: 32.0 micrograms/kg/injection, schedule: Q01DX009 (ip), vehicle: saline): 93 % of control

Compound: CN(C)c1ccc(C(=O)c2ccc(N(C)C)cc2)cc1
- T/C (dose: 100.0 mg/kg/injection, schedule: Q04DX003 (ip), vehicle: saline): 104 % of control
- T/C (dose: 200.0 mg/kg/injection, schedule: Q04DX003 (ip), vehicle: saline): 111 % of control
- T/C (dose: 400.0 mg/kg/injection, schedule: Q04DX003 (ip), vehicle: saline): 100 % of control

Compound: CC(=O)OC1CCC2(C)C(CCC3C4CC=C(C(C)=O)C4(C)CCC32)C1 (centres undefined)
- T/C [9]: 86 % of control
- T/C [11]: 98 % of control
- T/C (dose: 400.0 mg/kg/injection, schedule: Q01DX009 (ip), vehicle: Klucel (hydroxypropylcellulose) (HPC)): 90 % of control

Compound: CN(C)c1ccc2cc(S(=O)(=O)O)cc(O)c2c1
- T/C [12]: 97 % of control
- T/C [13]: 94 % of control

Compound: Cc1cc(Cl)ccc1NC(=O)c1ccc(Cl)cc1Cl
- T/C (dose: 100.0 mg/kg/injection, schedule: Q04DX003 (ip), vehicle: Klucel (hydroxypropylcellulose) (HPC)): 100 % of control
- T/C (dose: 200.0 mg/kg/injection, schedule: Q04DX003 (ip), vehicle: Klucel (hydroxypropylcellulose) (HPC)): 97 % of control
- T/C (dose: 400.0 mg/kg/injection, schedule: Q04DX003 (ip), vehicle: Klucel (hydroxypropylcellulose) (HPC)): 97 % of control

Compound: CC(N)(Cc1ccc(O)c(O)c1)C(=O)O (centres undefined)
- T/C [1]: 115 % of control
- T/C [2]: 100 % of control
- T/C [3]: 107 % of control
- T/C (dose: 400.0 mg/kg/injection, schedule: Q01DX009 (ip), vehicle: saline): 110 % of control

Compound: CC(=O)OCC1OC(n2ncc(=O)[nH]c2=O)C(OC(C)=O)C1OC(C)=O (centres undefined)
- T/C [7]: 106 % of control
- T/C [12]: 91 % of control
- T/C [13]: 95 % of control
- T/C [14]: 102 % of control
- T/C (dose: 800.0 mg/kg/injection, schedule: Q01DX009 (ip), vehicle: saline with Tween-80): 100 % of control

Compound: Nc1ccc(N=Nc2ccccc2)c(N)c1
- T/C [6]: 106 % of control
- T/C [7]: 93 % of control and 101 % of control
- T/C [9]: 101 % of control
- T/C [12]: 95 % of control and 101 % of control
- T/C [11]: 99 % of control
- T/C [13]: 87 % of control and 90 % of control

Compound: CC(=O)O[C@@]1(C)[C@@H](C)C(=O)O[C@@H]2CCN3CC=C(COC(=O)[C@]1(C)O)[C@H]23
- T/C [10]: 119 % of control
- T/C [1]: 119 % of control
- T/C [2]: 97 % of control

Compound: O=C(NC(CSCc1ccccc1)C(=O)Oc1ccc([N+](=O)[O-])cc1)OCc1ccccc1 (centres undefined)
- T/C (dose: 25.0 mg/kg/injection, schedule: Q01DX009 (ip), vehicle: gum acacia): 97 % of control

Compound: OCCNCc1ccc(Cl)cc1
- T/C [7]: 104 % of control
- T/C [12]: 109 % of control
- T/C [13]: 103 % of control

Compound: OC(c1ccccc1)(c1ccccc1)C1CC1c1ccncc1 (centres undefined)
- T/C [10]: 113 % of control
- T/C (dose: 25.0 mg/kg/injection, schedule: Q01DX009 (ip), vehicle: saline): 95 % of control
- T/C [1]: 102 % of control
- T/C [2]: 107 % of control

Compound: Cc1cccc(C)c1NC(=O)c1ccc(Cl)cc1Cl
- T/C [9]: 92 % of control

Compound: CC(C)C(Br)C(=O)NC(Cc1ccccc1)C(=O)O (centres undefined)
- T/C [12]: 104 % of control
- T/C [13]: 95 % of control

Compound: Cc1c2cnccc2c(C)c2c1c1ccccc1n2CC1CO1 (centres undefined)
- T/C (dose: 3.75 mg/kg/injection, schedule: Q01DX009 (ip), vehicle: Klucel (hydroxypropylcellulose) (HPC)): 117 % of control
- T/C (dose: 7.5 mg/kg/injection, schedule: Q01DX009 (ip), vehicle: Klucel (hydroxypropylcellulose) (HPC)): 114 % of control
- T/C (dose: 15.0 mg/kg/injection, schedule: Q01DX009 (ip), vehicle: Klucel (hydroxypropylcellulose) (HPC)): 121 % of control

Compound: COC1CCCCC1SCSC1CCCCC1OC (centres undefined)
- T/C [12]: 105 % of control
- T/C [13]: 102 % of control
- T/C [14]: 105 % of control

Compound: CCN(c1ccccc1C)S(=O)(=O)c1ccccc1
- T/C [6]: 100 % of control
- T/C [7]: 101 % of control
- T/C [9]: 96 % of control
- T/C [12]: 96 % of control

— PubChem BioAssay AID192 (DTP/NCI, 2004)
